Molecular target: cathepsin B (Homo sapiens, UniProt P07858)
Experiment: microscale thermophoresis with CTSB-WT-EGFP in HCT-116 cell lysate
Format: binding

CC(C)(O)[C@@H]1CC[C@](C)([C@H]2[C@@H](O)C[C@@]3(C)[C@@H]4C[C@H](O)[C@H]5C(C)(C)[C@@H](O)CC[C@@]56C[C@@]46CC[C@]23C)O1 [CAG, Cycloastragenol]
Kd: 26.6 nM

From paper PMC9621195 (Journal for Immunotherapy of Cancer, 2022)
